Values quoted from earlier work as cited in patent US20050250804A1, “Pharmaceutical gel formulations” (Glenmark Pharmaceuticals Limited, priority 2004, published 2005).

Legend:
human subjects = details: repeated insult patch test, 50 human subjects, total of 15 applications; manufacturer's brochure
[1] = system: Interleukin-2, interferon gamma, Interleukin-4 and Interleukin-10 cytokine synthesis in human T cells

PII (rabbit skin) | Structure (SMILES) | skin irritation (rabbit skin) | primary dermal irritation / sensitization (human subjects) | concentration inhibiting IL-2, interferon gamma (Th1-type), IL-4 and IL-10 (Th2-type) cytokine synthesis [1]
0.5 | CN1CCCC1=O [Pharmasolve®, N-methyl-2-pyrrolidone] | practically nonirritating | neither a primary dermal irritant nor a sensitizer | –
– | CC[C@@H]1/C=C(\C)C[C@H](C)C[C@H](OC)[C@H]2O[C@@](O)(C(=O)C(=O)N3CCCC[C@H]3C(=O)O[C@H](/C(C)=C/[C@@H]3CC[C@H](Cl)[C@H](OC)C3)[C@H](C)[C@@H](O)CC1=O)[C@H](C)C[C@@H]2OC [pimecrolimus, (1R,9S,12S,13R,14S,17R,18E,21 S,23S,24R,25S,27R)-12-[(1E)-2-{(1R,3R,4S)-4-chloro-3-methoxycyclohexyl}-1-methylvinyl]-17-ethyl-1,14-dihydroxy-23,25-dimethoxy-13,19,21,27-tetramethyl-11,28-dioxa-4-aza-tricyclo[22.3.1.04,9]octacos-18-ene-2,3,10,16-tetraone] | – | – | nanomolar concentrations
